Source: US10828272B2, “Means to facilitate food intake and food retention” (Chardon Group B.V., priority 2012, dated 2020)
Where a name gives a salt, the structure may show the parent alone.

System: Wistar rats
Experiment: Food intake test (30 min, living mealworms) in non-deprived rats
Format: in vivo, rat
Settings: for Dose needed for effect on food intake in this procedure (conclusion): into esophagus
From the text: In the following examples food intake tests were run with cohorts of 32 Wistar rats having food intake sessions in two groups of 16 rats in parallel. There were 8 rats per experimental group. The rats weighed in the range of 260-370 grams. Rats were acclimatized to the housing conditions in our laboratory for at least one week after arrival from the breeder. The rats were housed in pairs in Macrolon cages of 42×26 cm and 15 cm high, with standard food and water available ad libitum. The day-night cycle was not reversed (lights on at 7:00 AM, off 19:00 PM). Food intake tests were run in the same room wherein the rats were housed in the light period of the diurnal cycle of the rats. In a further period the rats were habituated to human handling and to the manner of presentation of mealworms in the food intake tests. Food intake was measured with rats without food deprivation. Food intake tests were done by placing the rats from their home cage individually into clean Macrolon (42×26×15 cm) cages without bedding. A weighed amount of at least 15-20 g living mealworms in a petri dish was placed in the middle of the cage and rats were allowed 30 minutes for eating mealworms. During the 30 minute test for food intake no drinking water was available. Injection treatments were administered at determined times before the food intake test. After drug administration the rats were returned to their home cage. Both rats of a pair in a living cage were assigned to the same treatment groups. Otherwise allocation of rats to experimental groups was done such that the treatments were equally and randomly spread over the duration of an experiment. The experimenter remained in the test room for the duration of an experiment. This allowed observation of general behavioural effects of the treatments. Abnormalities were recorded.
For drug administration commercially available stock solutions in vials were used: • lidocainehydrochloride 20 mg/ml injection fluid (Fresenius Kabi); procainamidehydrochloride 100 mg/ml injection fluid (Apotheek Haagse Ziekenhuizen); • ropivacainehydrochloride 7.5 mg/ml injection fluid (Fresenius Kabi); • metoclopramine (Sigma) was weighed and dissolved for use.
Drugs were administered in volumes of 1 ml/kg rat.
Vehicle: for local anesthetics the commercial physiological saline solutions for injection were used directly or the solution was diluted with distilled water. Alginate for a 2% viscous alginate solution was added 18 hours before use of the solution for injection. The solution was prepared to a viscous solution by allowing 18 hours of slow mechanical mixing.
For administration of the drug into the lumen of the esophagus the injection fluid was administered by entering a thick needle with rounded tip via, and into the esophagus just above the lower esophageal sphincter and retreating during injection to release the volume to be injected just behind the pharynx.
For administration into the stomach a similar 1 mm thick needle with a 2 mm tip and 60 mm length was introduced into the stomach via the esophagus as customary for oral administration in rats.
For administration subcutaneously (sc) the injection fluid was injected with a sharp thin needle under the skin in the neck.

Structure (SMILES): CCCN1CCCC[C@H]1C(=O)Nc1c(C)cccc1C.Cl [Ropivacaine, ropivacainehydrochloride]
- Grams of mealworms eaten (AVG) (Example 3, 1.25 mg/kg esophagus, 30 minutes before test): 13.40 grams
- Grams of mealworms eaten (AVG) (Example 4, 3.75 mg/kg esophagus, 30 minutes before test): 12.08 grams
- Grams of mealworms eaten (AVG) (Example 4, 7.5 mg/kg esophagus, 30 minutes before test): 13.58 grams
- Effect on food intake (conclusion) (Example 4, 7.5 mg/kg in the esophagus): enhanced food intake
- Effect on meal size (conclusion) (Example 5, 7.5 mg/kg and 11.25 mg/kg in the esophagus): effective in increasing meal size
- Grams of mealworms eaten (AVG) (Example 5, 7.5 mg/kg esophagus): 13.24 grams
- Grams of mealworms eaten (AVG) (Example 5, 7.5 mg/kg stomach): 10.72 grams
- Grams of mealworms eaten (AVG) (Example 5, 11.25 mg/kg esophagus): 14.44 grams
- Dose needed for effect on food intake in this procedure (conclusion) (30 minutes before test): higher than 1.25 mg/kg

Structure (SMILES): CCN(CC)CC(=O)Nc1c(C)cccc1C [Lidocaine•HCl, lidocainehydrochloride]
- Grams of mealworms eaten (AVG) (Example 1, 1 mg/kg into esophagus, 30 minutes before test): 14.85 grams
- Grams of mealworms eaten (AVG) (Example 1, 3 mg/kg into esophagus, 30 minutes before test): 14.46 grams
- Grams of mealworms eaten (AVG) (Example 1, 10 mg/kg into esophagus, 30 minutes before test): 14.54 grams
- Grams of mealworms eaten (AVG) (Example 2, 20 mg/kg esophagus, 15 minutes before test): 16.91 grams
- Grams of mealworms eaten (AVG) (Example 2, 20 mg/kg esophagus, 30 minutes before test): 17.14 grams
- Grams of mealworms eaten (AVG) (Example 2, 20 mg/kg stomach, 30 minutes before test): 16.28 grams
- Effect on food intake, esophagus compared with stomach (conclusion) (Example 2, 20 mg/kg, application in the esophagus versus into the stomach): more effective
- Effect on food intake (conclusion) (Example 2, dose of 20 mg/kg): effective
- Dose needed for effect on food intake in this procedure (conclusion) (30 minutes before test): above 10 mg/kg

Structure (SMILES): CCN(CC)CCNC(=O)c1ccc(N)cc1 [Procainamide, procainamidehydrochloride]
- Grams of mealworms eaten (AVG) (Example 3, 20 m/kg esophagus, 30 minutes before test): 12.11 grams
- Grams of mealworms eaten (AVG) (Example 4, 100 m/kg esophagus, 30 minutes before test): 10.55 grams
- Dose needed for effect on food intake in this procedure (conclusion) (30 minutes before test): higher than 20 mg/kg

Structure (SMILES): CCN(CC)CCNC(=O)c1cc(Cl)c(N)cc1OC [metoclopramide]
- Grams of mealworms eaten (AVG) (Example 6, 3 mg/kg sc, 30 minutes before test): 11.86 grams
- Grams of mealworms eaten (AVG) (Example 6, 10 mg/kg sc, 30 minutes before test): 1.25 grams
- Grams of mealworms eaten (AVG) (Example 6, 30 mg/kg sc, 30 minutes before test): 0.22 grams
- Effect on food intake (conclusion) (Example 6, subcutaneously at doses above 3 mg/kg): inhibits food intake
- Grams of mealworms eaten (AVG) (Example 7, 0.1 mg/kg sc, 30 minutes before test): 13.51 grams
- Grams of mealworms eaten (AVG) (Example 7, 0.3 mg/kg sc, 30 minutes before test): 12.23 grams
- Grams of mealworms eaten (AVG) (Example 7, 1 mg/kg sc, 30 minutes before test): 15.76 grams
- Effect on food intake (conclusion) (Example 7, 0.1 and 0.3 mg/kg subcutaneously): ineffective
- Effect on food intake (conclusion) (Example 7, subcutaneous injection of 1 mg/kg): increases food intake
